Laboratory results as given in patent US10653749B2, “Targeting GIV-GEF-GI signaling for treating diverse diseases” (The Regents of the University of California, priority 2015, dated 2020).
Entries after “also recorded” stand apart in the source; their conditions may differ.

T1: GST-tagged domains of IRS1 (Rattus norvegicus, UniProt P35570)
T1 construct: GST-tagged IRS1 domains (N: aa 2-516, M: aa 526-859 and C: 900-1235); made in house
T1 sequence (P35570 2-516): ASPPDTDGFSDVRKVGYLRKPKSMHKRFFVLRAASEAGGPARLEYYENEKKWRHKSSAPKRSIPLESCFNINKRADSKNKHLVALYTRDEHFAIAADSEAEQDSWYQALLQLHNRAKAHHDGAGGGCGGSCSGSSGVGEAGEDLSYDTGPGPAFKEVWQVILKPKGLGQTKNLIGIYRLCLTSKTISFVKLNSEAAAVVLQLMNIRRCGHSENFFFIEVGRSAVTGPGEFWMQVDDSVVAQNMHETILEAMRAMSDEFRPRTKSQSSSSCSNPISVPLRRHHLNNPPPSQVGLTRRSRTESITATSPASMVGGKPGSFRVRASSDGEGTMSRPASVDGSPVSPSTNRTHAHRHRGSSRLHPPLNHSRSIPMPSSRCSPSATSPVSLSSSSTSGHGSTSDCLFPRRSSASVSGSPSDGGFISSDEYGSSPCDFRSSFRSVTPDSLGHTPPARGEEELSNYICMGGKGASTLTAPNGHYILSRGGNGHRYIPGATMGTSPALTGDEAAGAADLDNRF

B1: His-GIV-CT: Recombinant His-tagged GIV-CT (aa 1660-1870) expressed from pET28b (protein)
chain: ETLESRHHKIKTGSPGSEVVTLQQFLEESNKLTSVQIKSSSQENLLDEVMKSLSVSSDFLGKDKPVSCGLARSVSGKTPGDFYDRRTTKPEFLRPGPRKTEDTYFISSAGKPTPGTQGKIKLVKESSLSRQSKDSNPYATLPRASSVISTAEGTTRRTSIHDFLTKDSRLPISVDSPPAAADSNTTAASNVDKVQESRNSKSRSREQQSS
modifications: left off: small tags and cut ends
notes: Recombinant His-tagged GIV-CT (aa 1660-1870) expressed from pET28b

Columns and labels:
[1] = test system: GIV binding to GST-Gαi3 [preloaded with GDP]; test: GST-Gαi3 pulldown of GIV from lysates of PA-treated L6 myoblasts; settings: L6 treated with PA 0.5 mM, 16 h
Method: (§1) Purified GST-Gαi3, GST-tagged IRS1 domains or GST alone were immobilized on glutathione-Sepharose beads (GE Healthcare) for 1 h at room temperature as described before (Garcia-Marcos et al., 2012; Ghosh et al., 2010; Ghosh et al., 2008; Lin et al., 2011). L6 lysates or His-GIV CT protein were added to each tube, and binding reactions were carried out for 4 h at 4° C. with constant tumbling in binding buffer [50 mM Tris-HCl (pH 7.4), 100 mM NaCl, 0.4% (v:v) Nonidet P-40, 10 mM MgCl2, 5 mM EDTA, 2 mM DTT, protease inhibitor mixture]. Beads were washed (4×) with 1 mL of wash buffer [4.3 mM Na2HPO4, 1.4 mM KH2PO4 (pH 7.4), 137 mM NaCl, 2.7 mM KCl, 0.1% (v:v) Tween 20, 10 mM MgCl2, 5 mM EDTA, 2 mM DTT] and bound complexes were eluted by boiling in Laemmli's sample buffer. When GST-Gαi3 was used in the assay, both binding buffer and washing buffer were supplemented with 30 μM GDP and bound proteins were eluted by incubating at 37° C.

[2] = test system: GIV, IRS1 and Akt phosphorylation; test: Metabolic insulin signaling in L6 cells by immunoblotting; type: cell-based, rat
Method: (§2) Transfection was carried out with GeneJuice (Novagen) for DNA plasmids or Oligofectamine (Invitrogen) for siRNA oligos according to manufacturer's protocols. Silencer negative Control scrambled (Scr) siRNA used as control was purchased from Ambion and the previously validated (Enomoto et al., 2005) GIV siRNA sequence used was custom-ordered from Dharmacon. For TAT-construct transduction, cells were incubated with 300-800 nM of the TAT-proteins for 30 min at 37° C. prior to three washes with PBS and addition of fresh growth media. For assays involving insulin (Novagen) stimulation of TAT-treated cells, such stimulation was carried out 90 min after transduction.
(§3) Unless otherwise indicated, serum starvation of cells for use in experiments involving insulin stimulation was carried out by growing cells overnight in the presence of no serum (i.e., 0% FBS) in the case of Cos7 and L6 cells, or in the presence of 0.2% FBS in the case of HeLa cells. To induce IR, cells were pre-treated with Sodium Palmitate (PA; Sigma-Aldrich) (0.5 mM, stock solution at 5 mM/5% FFA-free BSA in ethanol) or vehicle control (5% FFA-free BSA in ethanol) for 16 h. To reverse IR with TZDs, cells were treated with 50 μM Pioglitazone (Pio) (Sigma-Aldrich) or DMSO (vehicle control) for 18 h prior to stimulation with 100 nM insulin. Treatment with PKCθ pseudo-substrate inhibitor (Santa Cruz Biotechnologies) was performed at 10 μM for 16 h.
Protein samples for immunoblotting were run on SDS/PAGE gels and transferred onto PVDF membranes (Millipore). Membranes were blocked with PBS containing 5% non-fat milk (or with 5% BSA when probing for phosphorylated proteins) before incubation with primary antibodies. GIV was detected using rabbit anti-GIV coiled-coil (Millipore) (1:500); GIV-CT (Santa Cruz Biotechnologies) (1:500); phospho-Tyr1764-GIV (1:500) and phospho-Ser1689-GIV (21st Century Biochemicals) (1:250) antibodies. Other antibodies used in this work include rabbit polyclonal antibodies against Gαi3 (1:333), pan-GP (1:250) and phospho-IRS1 (1:500) from Santa Cruz Biotechnologies; and phospho-Akt (1:250); total Akt (1:250); phospho-ERK (1:250); phospho-AS160 (1:250); total InsRβ (1:500) and total IRS1 (1:500) from Cell signaling. Mouse monoclonal Abs against phospho-InsRβ (1:250), His (1:1000), β-tubulin (1:1000), GFP (1:500) from Santa Cruz Biotechnologies, and control IgG (Bio-Rad Laboratories) were commercially obtained. Goat anti-rabbit and goat anti-mouse Alexa Fluor 680 or IRDye 800 F(ab′)2 secondary antibodies were purchased from Li-Cor Biosciences. Images were processed with ImageJ software (NIH) and assembled as figure panels using Photoshop and Illustrator software (Adobe).

L6 myotubes = test: Fluorometric 2-deoxyglucose uptake assay after insulin stimulation; type: cell-based, rat
Method: as §2, §3
Glucose uptake assays were performed without the use of radioisotopes as described previously (Yamamoto et al., 2006). HeLa and L6 cells grown in 6-well plates were stimulated with insulin in KRH Buffer [50 mM HEPES, 137 mM NaCl, 4.7 mM KCl, 1.85 mM CaCl2, 1.3 mM MgSO4, and 0.1% (w/v) BSA-FFA free, pH 7.4]. Cells were incubated with 1 mM 2-deoxyglucose (2-DG) for 20 min, washed, and subsequently lysed with 0.1 N NaOH. The lysates were transferred into eppendorf tubes and samples were incubated in a water bath maintained at 80° C. for 45 min to degrade endogenous NAD(P)H and NAD(P)^+. An equal volume each of 0.1 N HCl and Triethanolamine (200 mM TEA, pH 8.1) buffer were added to each tube. Samples were subsequently mixed with assay solution [50 mM TEA, 0.02% BSA-FFA free, 10 μM NAD(P)^+, 0.2 U/ml Diaphorase, 6 nM Resazurin sodium, 15 U/ml G6PDH (Santa Cruz Biotechnologies)] and incubated at 37° C. for 90 min. Fluorescence intensity (λex=550 nM, λem=590 nM) was determined using a Tecan Inifinite M1000 PRO and normalized to total protein, as determined using BCA assay (Thermo Scientific).

[3] = target: T1, GST-tagged domains of IRS1; test: Pulldown of recombinant His-GIV-CT with GST-tagged IRS1 domains; type: binding; settings: recombinant proteins
Method: as §1

| Molecule | GIV's ability to bind Gi (Gαi3) [1] | phosphorylation of GIV at Y1764 ([2]; L6 cells treated with PA) | phosphorylation of GIV at S1689 ([2]; L6 cells treated with PA (0.5 mM, 16 h)) | induction of IR (glucose-uptake response to insulin) (L6 myotubes; L6-GIV-SA cells (S1689A)) | induction of IR (glucose-uptake response to insulin) (L6 myotubes; L6-GIV-WT cells) | binding to IRS1 domains [3] |
| --- | --- | --- | --- | --- | --- | --- |
| CCCCCCCCCCCCCCCC(=O)[O-].[Na+] [PA, Sodium Palmitate, reference compound] | reduced; also recorded: loss of binding | suppressed | enhanced | resistant to PA | induced IR | – |
| B1 | – | – | – | – | – | specifically bound the N-terminus of IRS1 |
